According to patent publication US11154563B2, “Immunoproteasome inhibitors” (Principia Biopharma Inc., priority 2017, dated 2021):

Columns and labels:
Type in all cases: biochemical
[1] = biological target: immunoproteasome LMP7/B5i subunit (Homo sapiens, UniProt P20618+P28062); test: Caliper-based proteasome enzymatic activity assay, LMP7; conditions: human recombinant immunoproteasome 0.3 nM, FAM-peptide substrate 1 μM, 3 h at rt
Method in brief: (§1)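 Recombinant human immunoproteasome or constitutive proteasome (0.3 nM) with 1 μM FAM-peptide in 20 mM Hepes pH 7.4, 0.015% SDS, 0.01% BSA; LMP7/β5c ran 3 h at rt and were stopped with 5 uM carfilzomib, LMP2 ran 2 h and was stopped with 6.7 uM ixazomib. Cleaved product quantified by microfluidic separation; IC50 from percent inhibition.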

[2] = biological target: constitutive proteasome β5c unit (Homo sapiens, UniProt P20618+P28074); test: Caliper-based proteasome enzymatic activity assay, β5c; conditions: human recombinant constitutive proteasome 0.3 nM, FAM-peptide substrate 1 μM, 3 h at rt; read-out: β5c subunit IC50
Method in brief: as §1

[3] = biological target: immunoproteasome LPM2/β1i subunit (Homo sapiens, UniProt P28065+P40306); test: Caliper-based proteasome enzymatic activity assay, LMP2; conditions: human recombinant immunoproteasome 0.3 nM, FAM-peptide substrate 1 μM, 2 h at rt
Method: A Caliper-based proteasome assay (Caliper Life Sciences, Hopkinton, Mass.) was used to measure inhibition of the immunoproteasome LMP7/B5i subunit, the immunoproteasome LPM2/β1i subunit, and the constitutive proteasome β5c unit for a compound of Formula (I). For LMP7 and β5c, serial dilutions of test compounds were incubated with either human recombinant immunoprotcasome or constitutive proteasome (0.3 nM enzyme) and a carboxyfluorescein (FAM)-labeled peptide substrate FAM-TYETFKSIMKKSPF-NH2 (1 μM) at it for 3 h. The reaction was then terminated with a buffer containing the known proteasome inhibitor carfilzomib at a concentration of 5 uM. For LMP2, serial dilutions of test compounds were incubated with human recombinant immunoproteasome proteasome (0.3 nM enzyme) and a carboxyfluorescein (FAM)-labeled peptide substrate FAM-[…]-NH2 (1 μM) at rt for 2 h. The reaction was then terminated with a buffer containing the known proteasome inhibitor ixazomib at a concentration of 6.7 uM. The reaction buffer was 20 mM Hepes pH 7.4, 0.01% bovine serum albumin, 0.015% SDS, 0.5 mM EDTA, 1%0/DMSO. The peptide cleavage reaction product was quantified on a Caliper LabChip 3000. Percent inhibition was calculated for each compound dilution and the concentration that produced 50% inhibition was calculated. This value is presented as the IC50.

IC50 [1] [nM]	IC50 [2] [nM]	IC50 [3] [nM]	Structure (SMILES)
7	> 5000	> 5000	CC(C)(C)C=C(C#N)C(=O)N1C[C@@H]2C[C@@H]2[C@H]1COC(=O)N[C@@H](Cc1ccccc1)B(O)O [Example 38]
1.6	518	> 5000	Cc1ccc(C[C@H](NC(=O)OC[C@H]2CCCCN2C(=O)C(C#N)=CC(C)(C)N2CCC(F)(F)C2)B(O)O)cc1 [Example 41, ((R)-1-(((((R)-1-(2-cyano-4-(3,3-difluoropyrrolidin-1-yl)-4-methylpent-2-enoyl)piperidin-2-yl)methoxy)carbonyl)amino)-2-(p-tolyl)ethyl)boronic acid]
9.2	713	> 5000	Cc1ccc(C[C@H](NC(=O)OC[C@H]2CCCCCN2C(=O)C(C#N)=CC(C)(C)C)B(O)O)cc1 [Example 32, ((R)-1-(((((R)-1-(2-cyano-4,4-dimethylpent-2-enoyl)azepan-2-yl)methoxy)carbonyl)amino)-2-(p-tolyl)ethyl)boronic acid]
14	3370	> 5000	CC(C)(C=C(C#N)C(=O)N1CCC[C@@H]1COC(=O)N[C@@H](Cc1ccccc1)B(O)O)N1CCCC1 [Example 34, ((R)-1-(((((R)-1-(2-cyano-4-methyl-4-(pyrrolidin-1-yl)pent-2-enoyl)pyrrolidin-2-yl)methoxy)carbonyl)amino)-2-phenylethyl)boronic acid]
41	> 5000	> 5000	Cc1ccc(C[C@H](NC(=O)OC[C@@H]2CCCCCN2C(=O)C(C#N)=CC(C)(C)C)B(O)O)cc1 [Example 33, ((R)-1-(((((S)-1-(2-cyano-4,4-dimethylpent-2-enoyl)azepan-2-yl)methoxy)carbonyl)amino)-2-(p-tolyl)ethyl)boronic acid]
2.9	3400	> 5000	CC(C)(C=C(C#N)C(=O)N1CCCC[C@@H]1COC(=O)N[C@@H](Cc1ccccc1)B(O)O)N1CCOCC1 [Example 29, ((R)-1-(((((R)-1-(2-cyano-4-methyl-4-morpholinopent-2-enoyl)piperidin-2-yl)methoxy)carbonyl)amino)-2-phenylethyl)boronic acid]
2.7	1450	2160	CC(C)C[C@H](NC(=O)OC[C@H]1CCCCN1C(=O)C(C#N)=CC(C)(C)N1CCC(F)(F)C1)B(O)O [Example 105, ((R)-1-(((((R)-1-(2-cyano-4-(3,3-difluoropyrrolidin-1-yl)-4-methylpent-2-enoyl)piperidin-2-yl)methoxy)carbonyl)amino)-3-methylbutyl)boronic acid]
1.2	925	3360	CC(C)(C=C(C#N)C(=O)N1C[C@@H]2C[C@@H]2[C@@H]1COC(=O)N[C@@H](Cc1ccccc1)B(O)O)N1CCC(F)(F)C1 [Example 74, ((R)-1-(((((1S,2R,5R)-3-(2-cyano-4-(3,3-difluoropyrrolidin-1-yl)-4-methylpent-2-enoyl)-3-azabicyclo[3.1.0]hexan-2-yl)methoxy)carbonyl)amino)-2-phenylethyl)boronic acid]
1	2310	> 5000	CC(C)(C=C(C#N)C(=O)N1C[C@@H]2C[C@@H]2[C@@H]1COC(=O)N[C@@H](Cc1ccccc1)B(O)O)N1CCOCC1 [Example 67, ((R)-1-(((((1S,2R,5R)-3-(2-cyano-4-methyl-4-morpholinopent-2-enoyl)-3-azabicyclo[3.1.0]hexan-2-yl)methoxy)carbonyl)amino)-2-phenylethyl)boronic acid]
2	4890	> 5000	CC(C)(C=C(C#N)C(=O)N1CCC[C@]1(C)COC(=O)N[C@@H](Cc1ccccc1)B(O)O)N1CCC(F)(F)C1 [Example 85, ((R)-1-(((((R)-1-(2-cyano-4-(3,3-difluoropyrrolidin-1-yl)-4-methylpent-2-enoyl)-2-methylpyrrolidin-2-yl)methoxy)carbonyl)amino)-2-phenylethyl)boronic acid]
1.4	2150	> 5000	CC(C)(C=C(C#N)C(=O)N1CCCC[C@@H]1COC(=O)N[C@@H](Cc1ccc(F)cc1)B(O)O)N1CCC(F)(F)C1 [Example 82, ((R)-1-(((((R)-1-(2-cyano-4-(3,3-difluoropyrrolidin-1-yl)-4-methylpent-2-enoyl)piperidin-2-yl)methoxy)carbonyl)amino)-2-(4-fluorophenyl)ethyl)boronic acid]
16	> 5000	> 5000	CC(C)(C=C(C#N)C(=O)N1CCCC[C@@H]1COC(=O)N[C@@H](Cc1ccccc1)B(O)O)N1CCCCC1 [Example 30, ((R)-1-(((((R)-1-(2-cyano-4-methyl-4-(piperidin-1-yl)pent-2-enoyl)piperidin-2-yl)methoxy)carbonyl)amino)-2-phenylethyl)boronic acid]

Continued, compound first:

Structure (SMILES)	IC50 [1] [nM]	IC50 [2] [nM]	IC50 [3] [nM]
C=CC(=O)N1CCC[C@@H]1COC(=O)N[C@@H](Cc1ccccc1)B(O)O [Example 14, ((R)-1-(((((R)-1-acryloylpyrrolidin-2-yl)methoxy)carbonyl)amino)-2-phenylethyl)boronic acid]	123	4850	> 5000
CC(C)(C=C(C#N)C(=O)N1CCC[C@@H]1COC(=O)N[C@@H](Cc1ccccc1)B(O)O)N1CCN(C2COC2)CC1 [Example 17, ((R)-1-(((((R)-1-(2-cyano-4-methyl-4-(4-(oxetan-3-yl)piperazin-1-yl)pent-2-enoyl)pyrrolidin-2-yl)methoxy)carbonyl)amino)-2-phenylethyl)boronic acid]	1.9	2950	> 5000
C=CC(=O)N1CCCC[C@@H]1COC(=O)N[C@@H](Cc1ccccc1)B(O)O [Example 8, ((R)-1-(((((R)-1-acryloylpiperidin-2-yl)methoxy)carbonyl)amino)-2-phenylethyl)boronic acid]	> 5000	> 5000	> 5000
CC(C)(C)C=C(C#N)C(=O)N1C[C@H]2C[C@H]2[C@H]1COC(=O)N[C@@H](Cc1ccccc1)B(O)O [Example 22, ((R)-1-(((((1R,2S,5S)-3-(2-cyano-4,4-dimethylpent-2-enoyl)-3-azabicyclo[3.1.0]hexan-2-yl)methoxy)carbonyl)amino)-2-phenylethyl)boronic acid]	1.8	> 5000	> 5000
CC(C)C=C(C#N)C(=O)N1CCC[C@H]1COC(=O)N[C@@H](Cc1ccccc1)B(O)O [Example 12, ((R)-1-(((((S)-1-(2-cyano-4-methylpent-2-enoyl)pyrrolidin-2-yl)methoxy)carbonyl)amino)-2-phenylethyl)boronic acid]	39	> 5000	> 5000
CC(C)(C)C=C(C#N)C(=O)N1CCCC[C@@H]1COC(=O)N[C@@H](Cc1coc2ccccc12)B(O)O [Example 25, ((R)-2-(benzofuran-3-yl)-1-(((((R)-1-(2-cyano-4,4-dimethylpent-2-enoyl)piperidin-2-yl)methoxy)carbonyl)amino)ethyl)boronic acid]	0.6	172	> 5000
Cc1ccc(C[C@H](NC(=O)OC[C@H]2CCCN2C(=O)C(C#N)=CC(C)(C)C)B(O)O)cc1 [Example 18, ((R)-1-(((((R)-1-(2-cyano-4,4-dimethylpent-2-enoyl)pyrrolidin-2-yl)methoxy)carbonyl)amino)-2-(p-tolyl)ethyl)boronic acid]	2	1540	> 5000
CC(C)C=C(C#N)C(=O)N1CCCC[C@H]1COC(=O)N[C@@H](Cc1ccccc1)B(O)O [Example 13, ((R)-1-(((((S)-1 (2-cyano-4-methylpent-2-enoyl)piperidin-2-yl)methoxy)carbonyl)amino)-2-phenylethyl)boronic acid]	38	> 5000	4040
C=CC(=O)N1CCCC[C@H]1COC(=O)N[C@@H](Cc1ccccc1)B(O)O [Example 11, ((R)-1-(((((S)-1-acryloylpiperidin-2-yl)methoxy)carbonyl)amino)-2-phenylethyl)boronic acid]	957	> 5000	3240
